According to publication PMC6199744, “Development of Chemical Proteomics for the Folateome and Analysis of the Kinetoplastid Folateome” (ACS Infectious Diseases, 2018):
Like-named read-outs stand apart in the source and are kept apart here.

What was measured:
Type in all cases: binding
[1] = target: T1, HeLa cell extract proteins (Homo sapiens, UniProt Q9HB71)
T1 construct: endogenous in cells; host or cells: HeLa cell extract

[2] = target: T2, HeLa cell extract proteins (Homo sapiens, UniProt P30740)
T2 construct: endogenous in cells; host or cells: HeLa cell extract
T2 sequence (P30740 1-379): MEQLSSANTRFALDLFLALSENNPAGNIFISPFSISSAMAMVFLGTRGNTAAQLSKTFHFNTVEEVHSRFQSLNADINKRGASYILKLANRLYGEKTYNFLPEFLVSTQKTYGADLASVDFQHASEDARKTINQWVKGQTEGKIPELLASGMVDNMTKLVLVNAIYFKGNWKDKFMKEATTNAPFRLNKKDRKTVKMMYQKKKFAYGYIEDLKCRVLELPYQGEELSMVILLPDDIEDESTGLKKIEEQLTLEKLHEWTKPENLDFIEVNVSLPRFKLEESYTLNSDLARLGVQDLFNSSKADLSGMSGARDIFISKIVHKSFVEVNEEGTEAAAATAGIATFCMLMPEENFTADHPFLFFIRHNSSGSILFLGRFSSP

[3] = target: T3, HeLa cell extract proteins (Homo sapiens, UniProt O60762)
T3 construct: endogenous in cells; host or cells: HeLa cell extract
T3 sequence (O60762 whole entry): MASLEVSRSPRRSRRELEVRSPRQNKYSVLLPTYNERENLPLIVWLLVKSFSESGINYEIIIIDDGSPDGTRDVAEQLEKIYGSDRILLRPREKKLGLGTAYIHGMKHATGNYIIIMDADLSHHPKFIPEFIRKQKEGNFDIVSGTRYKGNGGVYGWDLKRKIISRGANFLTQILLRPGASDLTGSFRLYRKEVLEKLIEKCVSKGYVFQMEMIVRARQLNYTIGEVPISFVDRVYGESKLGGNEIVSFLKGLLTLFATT

[4] = target: T4, HeLa cell extract proteins (Homo sapiens, UniProt P31327)
T4 construct: endogenous in cells; host or cells: HeLa cell extract
T4 sequence (P31327 39-1500): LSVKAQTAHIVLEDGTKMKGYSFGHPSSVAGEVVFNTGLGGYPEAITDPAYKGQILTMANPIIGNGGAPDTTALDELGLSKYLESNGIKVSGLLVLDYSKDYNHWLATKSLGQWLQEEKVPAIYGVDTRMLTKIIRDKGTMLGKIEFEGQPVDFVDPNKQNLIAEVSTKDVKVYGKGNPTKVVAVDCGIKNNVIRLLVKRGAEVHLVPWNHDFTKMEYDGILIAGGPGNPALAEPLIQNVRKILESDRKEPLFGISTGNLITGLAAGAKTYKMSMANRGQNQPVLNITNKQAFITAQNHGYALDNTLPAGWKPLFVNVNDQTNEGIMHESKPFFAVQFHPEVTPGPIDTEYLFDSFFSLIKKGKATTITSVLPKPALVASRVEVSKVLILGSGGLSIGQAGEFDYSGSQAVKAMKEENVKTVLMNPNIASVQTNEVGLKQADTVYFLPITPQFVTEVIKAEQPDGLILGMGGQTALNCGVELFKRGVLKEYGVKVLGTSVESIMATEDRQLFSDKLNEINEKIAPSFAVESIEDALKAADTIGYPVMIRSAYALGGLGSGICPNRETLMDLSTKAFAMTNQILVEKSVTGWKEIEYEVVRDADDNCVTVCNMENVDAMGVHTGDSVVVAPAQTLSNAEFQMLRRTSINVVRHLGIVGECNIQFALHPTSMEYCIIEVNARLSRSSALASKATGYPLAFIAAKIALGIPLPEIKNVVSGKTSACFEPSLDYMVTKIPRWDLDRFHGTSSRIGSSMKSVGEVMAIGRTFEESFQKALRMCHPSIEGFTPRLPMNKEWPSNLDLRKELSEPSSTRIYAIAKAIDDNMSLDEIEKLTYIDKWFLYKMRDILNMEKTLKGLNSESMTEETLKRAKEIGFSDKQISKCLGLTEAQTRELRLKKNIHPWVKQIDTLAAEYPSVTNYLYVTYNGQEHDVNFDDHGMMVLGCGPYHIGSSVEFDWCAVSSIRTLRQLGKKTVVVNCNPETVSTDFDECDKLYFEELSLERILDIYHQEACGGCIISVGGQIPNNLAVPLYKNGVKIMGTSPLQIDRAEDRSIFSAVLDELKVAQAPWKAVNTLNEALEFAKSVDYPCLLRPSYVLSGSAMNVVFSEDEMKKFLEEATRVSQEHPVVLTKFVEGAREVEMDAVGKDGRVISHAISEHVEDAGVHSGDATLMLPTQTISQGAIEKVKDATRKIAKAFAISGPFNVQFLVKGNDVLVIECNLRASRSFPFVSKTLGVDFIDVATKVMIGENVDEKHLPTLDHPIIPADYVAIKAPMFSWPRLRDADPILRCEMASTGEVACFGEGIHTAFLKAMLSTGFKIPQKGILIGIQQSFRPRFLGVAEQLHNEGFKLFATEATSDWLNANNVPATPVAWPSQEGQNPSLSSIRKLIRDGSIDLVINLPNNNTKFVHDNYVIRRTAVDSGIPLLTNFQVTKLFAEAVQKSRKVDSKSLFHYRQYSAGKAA

[5] = target: T5, HeLa cell extract proteins (Homo sapiens, UniProt O00571)
T5 construct: endogenous in cells; host or cells: HeLa cell extract
T5 sequence (O00571 whole entry): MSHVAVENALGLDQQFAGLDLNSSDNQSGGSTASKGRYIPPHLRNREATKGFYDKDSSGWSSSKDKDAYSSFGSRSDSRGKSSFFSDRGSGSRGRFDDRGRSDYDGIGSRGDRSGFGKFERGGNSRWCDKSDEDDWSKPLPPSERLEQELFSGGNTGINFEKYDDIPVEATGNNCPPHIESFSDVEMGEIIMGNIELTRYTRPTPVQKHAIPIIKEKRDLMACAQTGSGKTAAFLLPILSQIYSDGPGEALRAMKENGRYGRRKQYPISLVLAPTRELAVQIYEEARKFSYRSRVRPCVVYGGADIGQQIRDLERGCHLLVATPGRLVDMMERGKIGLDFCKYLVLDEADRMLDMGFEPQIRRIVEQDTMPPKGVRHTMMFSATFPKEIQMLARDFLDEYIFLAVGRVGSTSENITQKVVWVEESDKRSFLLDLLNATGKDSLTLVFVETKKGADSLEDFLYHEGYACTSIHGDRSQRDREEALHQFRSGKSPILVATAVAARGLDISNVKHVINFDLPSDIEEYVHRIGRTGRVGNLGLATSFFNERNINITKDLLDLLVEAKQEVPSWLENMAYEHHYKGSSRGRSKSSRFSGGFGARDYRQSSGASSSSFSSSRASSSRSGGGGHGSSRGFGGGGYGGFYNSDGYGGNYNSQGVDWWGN

[6] = target: T6, HeLa cell extract proteins (Homo sapiens, UniProt Q99714)
T6 construct: endogenous in cells; host or cells: HeLa cell extract
T6 sequence (Q99714 1-261): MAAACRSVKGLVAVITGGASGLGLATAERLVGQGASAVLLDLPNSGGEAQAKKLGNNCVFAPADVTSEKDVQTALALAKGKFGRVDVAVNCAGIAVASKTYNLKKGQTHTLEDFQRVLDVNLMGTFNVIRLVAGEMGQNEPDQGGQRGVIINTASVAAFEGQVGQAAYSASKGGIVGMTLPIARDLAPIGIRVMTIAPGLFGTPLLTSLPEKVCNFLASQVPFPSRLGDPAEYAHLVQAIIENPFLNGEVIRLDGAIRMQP

[7] = target: T7, HeLa cell extract proteins (Homo sapiens, UniProt Q16637)
T7 construct: endogenous in cells; host or cells: HeLa cell extract
T7 sequence (Q16637 whole entry): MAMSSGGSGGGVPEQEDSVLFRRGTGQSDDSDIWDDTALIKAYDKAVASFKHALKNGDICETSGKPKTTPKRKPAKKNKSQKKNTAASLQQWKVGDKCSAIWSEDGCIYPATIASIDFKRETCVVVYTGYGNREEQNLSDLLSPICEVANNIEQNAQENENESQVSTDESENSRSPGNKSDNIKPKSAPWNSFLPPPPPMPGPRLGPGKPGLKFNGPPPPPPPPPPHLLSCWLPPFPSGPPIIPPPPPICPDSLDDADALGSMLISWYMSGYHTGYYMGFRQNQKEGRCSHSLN

[8] = target: T8, HeLa cell extract proteins (Homo sapiens, UniProt O60664)
T8 construct: endogenous in cells; host or cells: HeLa cell extract
T8 sequence (O60664 1-434): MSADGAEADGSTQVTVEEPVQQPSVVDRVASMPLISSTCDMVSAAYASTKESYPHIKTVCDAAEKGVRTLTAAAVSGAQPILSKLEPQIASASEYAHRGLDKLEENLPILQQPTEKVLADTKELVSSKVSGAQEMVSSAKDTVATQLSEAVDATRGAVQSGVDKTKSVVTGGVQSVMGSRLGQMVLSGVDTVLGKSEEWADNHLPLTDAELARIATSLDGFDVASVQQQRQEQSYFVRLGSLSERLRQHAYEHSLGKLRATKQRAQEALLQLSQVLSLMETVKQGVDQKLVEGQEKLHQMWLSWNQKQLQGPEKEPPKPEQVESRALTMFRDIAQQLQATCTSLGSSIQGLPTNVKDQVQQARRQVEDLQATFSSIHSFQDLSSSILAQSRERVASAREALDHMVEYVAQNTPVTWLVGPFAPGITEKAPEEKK

[9] = HeLa, protein CACYBP (ISOFORM 1 OF CALCYCLIN-BINDING PROTEIN)

T1 sequence (Q9HB71 whole entry): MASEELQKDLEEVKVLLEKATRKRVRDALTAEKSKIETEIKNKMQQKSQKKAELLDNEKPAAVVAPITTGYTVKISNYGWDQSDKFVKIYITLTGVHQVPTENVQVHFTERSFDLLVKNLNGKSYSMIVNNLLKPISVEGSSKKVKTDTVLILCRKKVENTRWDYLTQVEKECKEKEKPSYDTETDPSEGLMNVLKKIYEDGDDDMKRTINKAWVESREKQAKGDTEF

Structure (SMILES)	fold changes relative to vehicle control ([1]; protein CACYBP, HeLa)	fold changes relative to vehicle control ([2]; protein SERPINB1, HeLa)	fold changes relative to vehicle control ([3]; captured protein DPM1, HeLa)	fold changes relative to vehicle control ([4]; protein CPS1, HeLa)	fold changes relative to vehicle control ([5]; protein DDX3X, HeLa)	fold changes relative to vehicle control ([6]; protein HSD17B10, HeLa)	fold changes relative to vehicle control ([7]; protein SMN1, HeLa)	fold changes relative to vehicle control ([8]; protein M6PRBP1, HeLa)	fold changes relative to vehicle control [1, 9]	fold changes relative to vehicle control ([2]; HeLa, protein SERPINB1)	fold changes relative to vehicle control ([3]; protein DPM1, HeLa)	fold changes relative to vehicle control ([4]; HeLa, captured protein CPS1)	fold changes relative to vehicle control ([5]; HeLa, captured protein DDX3X)	fold changes relative to vehicle control ([6]; HeLa, protein HSD17B10)	fold changes relative to vehicle control ([7]; HeLa, protein SMN1)	also measured
Nc1nc2cccc(-c3ccccc3)c2n1Cc1ccc(Cl)c(Cl)c1 [compound 3]	0.93	0.98	1.02	1.09	0.94	0.93	0.98	0.94								
Nc1nc2[nH]cc(CCc3ccc(C(=O)N[C@@H](CCC(=O)O)C(=O)O)cc3)c2c(=O)[nH]1 [PTX, pemetrexed]																fold changes relative to vehicle control [1]: 1; fold changes relative to vehicle control [2]: 1.06; fold changes relative to vehicle control [3]: 0.88; fold changes relative to vehicle control [4]: 1.08; fold changes relative to vehicle control [5]: 0.86; fold changes relative to vehicle control [6]: 0.9; fold changes relative to vehicle control [7]: 0.99; fold changes relative to vehicle control [8]: 1.06
Nc1nc2c(c(=O)[nH]1)N(C=O)C(CNc1ccc(C(=O)N[C@@H](CCC(=O)O)C(=O)O)cc1)CN2 (some centres unmarked) [LEU, leucovorin]								1	0.85	0.98	0.94	1.13	0.94	0.93	0.94	
CCCCCCOc1cccc(Cc2cnc(N)nc2N)c1 [compound 2]	1.37	1.28	0.84	1.61	1.05	1.31	1.09	1.68								
NCCOCCOCC(=O)Nc1nc2ncc(CNc3ccc(C(=O)NC(CCC(=O)O)C(=O)O)cc3)nc2c(=O)[nH]1 (centres unmarked) [compound 6]								1.27	1.16	1.09	1.1	1.27	0.9	0.94	1.16	
CCCCCCOc1ccc(Cc2cnc(N)nc2N)cc1 [compound 1]	1.12	1.07	0.89	1.27	0.96	0.91	1	1.23								
NCCCNc1ccc(C(=O)NC(CCC(=O)O)C(=O)O)cc1 (centres unmarked) [compound 7]								0.93	1.16	0.99	1.04	1.05	0.93	0.93	0.97	
